Among the data in patent US20110028509A1, “Sulfonamides” (MERCK SERONO SA, priority 2008, published 2011) are IC50 values, retold here.

For assay [1], the target named is T1, CXCR3 (Homo sapiens, UniProt P49682).
T1 sequence (P49682 1-368): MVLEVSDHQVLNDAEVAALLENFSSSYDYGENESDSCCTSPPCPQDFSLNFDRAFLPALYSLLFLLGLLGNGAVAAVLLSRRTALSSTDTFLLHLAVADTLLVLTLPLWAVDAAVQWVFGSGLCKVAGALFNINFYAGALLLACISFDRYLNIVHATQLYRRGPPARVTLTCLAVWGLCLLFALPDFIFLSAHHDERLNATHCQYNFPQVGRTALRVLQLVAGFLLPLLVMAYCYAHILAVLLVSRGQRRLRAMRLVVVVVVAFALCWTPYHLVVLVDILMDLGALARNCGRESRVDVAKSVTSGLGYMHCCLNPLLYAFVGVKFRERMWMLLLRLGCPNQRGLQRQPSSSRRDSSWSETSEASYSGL
The assay is described as follows: Chemotaxis assay IP10, L1.2 recombinant cells expressing hCXCR3. Type of assay: cell-based. The settings on record: L1.2 hCXCR3 cells, IP10 around 0.3 nM, 4 hours. The protocol: Human CXCR3 cDNA was amplified by PCR from a human cells cDNA library (Clontech) and subcloned into pcDNA3.1 (Invitrogen). Murine pre-B L1.2 cells were transfected with hCXCR3-pcDNA3.1 and were grown at 37° C., 5% CO2 in RPMI 1640 medium (Invitrogen, USA) supplemented with 5% heat inactivated fetal calf serum (Cancerra, Australia), 2 mM glutamine (Invitrogen), 50 units ml−1 penicillin, 50 μml−1 streptomycin. Stable transfectant clonal populations were selected using 800 μg/ml geneticin.
L1.2 recombinant cells expressing the receptor hCXCR3 were maintained in culture in RPMI 1640 (invitrogen), 5% Foetal Bovine Serum (invitrogen), 2 mM glutamine(invitrogen), 50 u/ml penicillin/streptomycin (invitrogen), at 37° C.-5% CO2—in an H2O saturated incubator. In order to stimulate the expression of the receptor, cells were incubated overnight with 5 mM butyric acid (Sigma)
This mix of cells/compounds was then incubated at 37° C.-5% CO2—in an H2O saturated incubator during 30 minutes. Cells were then dispensed as a drop on each corresponding wells of the chemotaxis system. Cell migration was then induced at 37° C.-5% CO2—in an H2O incubator during 4 hours. Filters were then removed and cells that had migrated were transferred in a black plate (Costar). The plates were stored overnight at −80° C. Cell migration ratio was calculated using the cyquant dye (Molecular Probes-C7026).

The target of assay [2] is T1, CXCR3. The assay is described as follows: CXCR3 Ca2+ mobilization (FLIPR), stable hCXCR3-CHO cell line, I-TAC stimulated. Type of assay: cell-based. The arrangement: host or cells: CHO cells stably expressing hCXCR3. The settings on record: hCXCR3-CHO cells, I-TAC 100 nM stimulated Ca2+ response; read-out: Ca-ITAC. The gist of the method: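 CHO cells stably expressing hCXCR3, grown 18 hours after plating, loaded with calcium indicator dye 60 minutes; compounds equilibrated 20 minutes at room temperature. Fluorescence change evoked by 100 nM I-TAC read on FLIPR; activity expressed as percent of I-TAC response without compound (100%).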
In general terms: A change in cytosolic calcium serves as a functional read-out for many receptors and channels.

Consider `COc1ccc(CN(Cc2ccc(-c3nnn[nH]3)cc2)S(=O)(=O)c2ccc(Cl)cc2)cc1` [Example 24, 4-Chloro-N-(4-methoxy-benzyl)-N-[4-(1H-tetrazol-5-yl)-benzyl]-benzenesulfonamide], for which, at CXCR3 [1], the IC50 was 0.885 µM. The same measure, in the same setting: the result for `O=S(=O)(c1ccc(Cl)cc1)N(Cc1ccc(Cl)cc1)Cc1ccc(-c2nnn[nH]2)cc1` [Example 25, 4-chloro-N-(4-chlorobenzyl)-N-[4-(1H-tetrazol-5-yl)benzyl]benzenesulfonamide] reads 0.882 µM.

`O=C(NCC1CC1)c1ccc(CN(Cc2ccccc2F)S(=O)(=O)c2ccc(Cl)cc2)cc1` [Example 29, 4-{[(4-Chloro-benzenesulfonyl)-(2-fluoro-benzyl)-amino]-methyl}-N-cyclopropyl methyl benzamide]: the IC50 turned out to be 1000 nM on CXCR3 [2] and 0.51 µM at CXCR3 [1].

As for `O=C(NCC1CC1)c1ccc(CN(Cc2ccccc2)S(=O)(=O)c2ccc(Cl)nc2)cc1` [Example 37, 4-{[benzyl({[2-chloropyridine)l]sulfonyl)amino]methyl}-N(cyclopropylmethyl)benzamide], the figures for the IC50 on CXCR3 [2] and on CXCR3 [1] were 3350 nM and 0.328 µM, respectively. Take `N#Cc1ccc(S(=O)(=O)N(Cc2ccc(C(=O)NCC3CC3)cc2)Cc2ccccn2)cc1` [Example 43]: the IC50 on CXCR3 [2] was 4750 nM; on CXCR3 [1] it was 0.36 µM. Turning to `N#Cc1ccc(S(=O)(=O)N(Cc2ccc(-c3nnn[nH]3)cc2)Cc2ccccn2)cc1` [Example 47, 4-cyano-N-(pyridin-2-ylmethyl)-N-[4-(2H-tetrazol-5-yl)benzyl]benzenesulfonamide], the IC50 on CXCR3 [2] was 1160 nM; on CXCR3 [1], 0.233 µM. As for `O=C(NS(=O)(=O)Cc1cccc([N+](=O)[O-])c1)c1ccc(CN(Cc2ccccn2)S(=O)(=O)c2ccc(Cl)cc2)cc1` [Example 50, N-(3-nitrophenylmethanesulfonyl)-4-{[[(4-chlorophenyl)sulfonyl](pyridin-2-yl-methyl)amino]methyl}benzamide], the IC50 on CXCR3 [2] was found to be 175 nM; on CXCR3 [1], 0.207 µM. For `O=C(NS(=O)(=O)c1cccc(F)c1)c1ccc(CN(Cc2ccccn2)S(=O)(=O)c2ccc(Cl)cc2)cc1` [Example 51, N-(3-fluorobenzenesulfonyl)-4-{[[(4-chlorophenyl)sulfonyl](pyridin-2-yl-methyl)amino]methyl}benzamide], in that order: 131 nM and 0.339 µM.

Regarding `CS(=O)(=O)CCCS(=O)(=O)NC(=O)c1ccc(CN(Cc2ccccn2)S(=O)(=O)c2ccc(Cl)cc2)cc1` [Example 53, N-(1-methylsulfonyl-3-propylsulfonyl)-4-{[[(4-chlorophenyl)sulfonyl](pyridin-2-yl-methyl)amino]methyl}benzamide], the IC50 at CXCR3 [2] stood at 1700 nM; at CXCR3 [1], 1.32 µM.

For the compound `COCCCS(=O)(=O)NC(=O)c1ccc(CN(Cc2ccccn2)S(=O)(=O)c2ccc(Cl)cc2)cc1` [Example 54, N-(3-methoxy-propane-1-sulfonyl)-4-{[[(4-chlorophenyl)sulfonyl](pyridin-2-yl-methyl)amino]methyl}benzamide], the IC50 at CXCR3 [2] stood at 5600 nM; at CXCR3 [1], 3.83 µM. For `O=S(=O)(c1ccc(Cl)cc1)N(Cc1ccc(-c2nnn[nH]2)c(F)c1)Cc1ccccn1` [Example 56, 4-chloro-N-[3-fluoro-4-(1H-tetrazol-5-yl)benzyl]-N-(pyridin-2 ylmethyl)benzene sulfonamide], in that order: 5300 nM and 1.16 µM. Turning to `Cc1noc(C)c1CN(Cc1ccc(-c2nnn[nH]2)cc1)S(=O)(=O)c1ccc(Cl)cc1` [Example 58, 4-chloro-N-[(3,5-dimethylisoxazol-4-yl)methyl]-N-[4-(2H-tetrazol-5-yl)benzyl]benzene sulfonamide], at CXCR3 [1], the IC50 came to 1.43 µM. With `O=S(=O)(c1ccc(Cl)cc1)N(Cc1ccc(-c2nnn[nH]2)cc1)Cc1ncco1` [Example 59, 4-chloro-N-(1,3-oxazol-2-ylmethyl)-N-[4-(2H-tetrazol-5-yl)benzyl]benzene sulfonamide], the IC50 on CXCR3 [1] amounted to 3.67 µM. Consider `O=S(=O)(c1ccc(Cl)cc1)N(Cc1ccc(-c2nnn[nH]2)cc1)Cc1ccc(F)cc1F` [Example 60, 4-chloro-N-(2,4-difluorobenzyl)-N-[4-(2H-tetrazol-5-yl)benzyl]benzenesulfonamide], for which the IC50 amounted to 1450 nM on CXCR3 [2] and 0.681 µM at CXCR3 [1]. The like results for `O=S(=O)(c1ccc(Cl)cc1)N(Cc1ccc(-c2nnn[nH]2)cc1)Cc1ccccc1Cl` [Example 63, 4-chloro-N-(2-chlorobenzyl)-N-[4-(2H-tetrazol-5-yl)benzyl]benzenesulfonamide] were, in that order, 415 nM and 0.548 µM. Take `O=S(=O)(c1ccc(Cl)cc1)N(Cc1ccc(-c2nnn[nH]2)cc1)Cc1cc2ccccc2cn1` [Example 76, 4-chloro-N-(isoquinolin-3-ylmethyl)-N-[4-(2H-tetrazol-5yl)benzyl]benzene sulfonamide]: the IC50 at CXCR3 [2] is 300 nM; on CXCR3 [1], 0.911 µM. The like results for `CCOc1ccc(S(=O)(=O)N(Cc2ccc(C(=O)N[C@H]3[C@@H]4CN(C(=O)OC(C)(C)C)C[C@@H]43)cc2)Cc2ccccn2)cc1` [Example 89, rac-6-(4-{[(4-Ethoxy-benzenesulfonyl)-pyridin-2-ylmethyl-amino]-methyl}-benzoylamino)-3-aza-bicyclo[3.1.0]hexane-3-carboxylic acid tert-butyl ester] were, in that order, 50 nM and 0.01 µM. As for `CCOc1ccc(S(=O)(=O)N(Cc2ccc(C(=O)NC3(c4ccccc4)CC3)cc2)Cc2cccnc2)cc1` [Example 93], the IC50 on CXCR3 [2] was found to be 30 nM; at CXCR3 [1] it was 0.04 µM. In the case of `CC(C)(C)OC(=O)N1C[C@@H]2[C@H](C1)[C@H]2NC(=O)c1ccc(CN(Cc2ccccn2)S(=O)(=O)c2ccc(C#N)cc2)cc1` [Example 96], the IC50 was 10 nM at CXCR3 [2] and 0.01 µM at CXCR3 [1].

`N#Cc1ccc(S(=O)(=O)N(Cc2ccc(C(=O)NCCc3cccc(Cl)c3)cc2)Cc2ccccn2)cc1` [Example 97]: the figures for the IC50 on CXCR3 [2] and on CXCR3 [1] were 70 nM and 0.05 µM, respectively.

Turning to `CC(CNC(=O)c1ccc(CN(Cc2ccccn2)S(=O)(=O)c2ccc(C#N)cc2)cc1)c1ccccc1` (stereo not shown) [Example 98], the IC50 at CXCR3 [2] was 400 nM; on CXCR3 [1], 0.16 µM.

As for `N#Cc1ccc(S(=O)(=O)N(Cc2ccc(C(=O)NC3(c4cccc(C#N)c4)CC3)cc2)Cc2ccccn2)cc1` [Example 101], the IC50 was 60 nM on CXCR3 [2] and 0.19 µM on CXCR3 [1]. Consider `CCOc1ccc(S(=O)(=O)N(Cc2ccc(C(=O)O)cc2)Cc2cccnc2)cc1` [Example 157], for which the IC50 at CXCR3 [2] turned out to be 1620 nM; on CXCR3 [1], 4.18 µM.

For `O=C(Cc1cccc(Cl)c1)Nc1ccc(CN(Cc2ccccn2)S(=O)(=O)c2ccc(Cl)cc2)cc1` [Example 160], the IC50 is 100 nM at CXCR3 [2] and 0.12 µM at CXCR3 [1]. With `N#Cc1ccc(S(=O)(=O)N(Cc2ccc(NC(=O)Cc3cccc(Cl)c3)cc2)Cc2ccccn2)cc1` [Example 161], the IC50 at CXCR3 [2] is 20 nM; on CXCR3 [1], 0.06 µM.
